Experimental data taken from US20190151312A1, “HEPARAN SULFATE BIOSYNTHESIS INHIBITORS FOR THE TREATMENT OF DISEASES” (BioMarin Pharmaceutical Inc., priority 2014, published 2019).

These molecules were tested on GM01896 cells (MPS II dermal fibroblasts) (assay: Assay 1: MPS cellular assay, MPS II (heparan sulfate disaccharide biomarkers by LC-MS)). Settings: Assay 1 for MPS II, heparan sulfate disaccharide biomarkers (I2a4, I2a6, I2S0 and/or I2S6), read-out: IC50 Range.
Assay type: cell-based, human
In short: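 MPS II patient dermal fibroblasts (GM01896) treated with compound at ≤30 μM for 4 to 21 days. Heparan sulfate GAGs isolated by anion exchange, digested with heparinases I-III, aniline-tagged against [13C6]aniline standards and quantified by LC-MS; IC50 from curve fitting. Viability monitored by alamar blue or ATP.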
Cn1nc(N2CCCC2)c2ccc(-c3cc(Nc4ccc(Cl)cc4)nc(N4CCOCC4)n3)cc21 [(4-chlorophenyl)[6-(1-methyl-3-pyrrolidinyl(1H-indazol-6-yl))-2-morpholin-4-ylpyrimidin-4-yl]amine] was tested, and the IC50 was 1000 to 5000 nM. With CN(C)CCCn1cnc2ccc(-c3cc(Nc4ccc(Cl)cc4)nc(N4CCOCC4)n3)cc21 [[3-(6-{6-[(4-chlorophenyl)amino]-2-morpholin-4-ylpyrimidin-4-yl}benzimidazolyl)propyl]dimethylamine] the IC50 was 500 to 1000 nM. Cn1ccc2ccc(Nc3cc(-c4ccc5c(CCCN6CCCC6)nn(C)c5c4)nc(N4CCOCC4)n3)cc21 [(1-methylindol-6-yl) {6-[1-methyl-3-(3-pyrrolidinylpropyl)(1H-indazol-6-yl)]-2-morpholin-4-ylpyrimidin-4-yl}amine] gave an IC50 of 500 to 1000 nM.

Same assay, conditions: Homo sapiens, Fibroblast, Assay 1 for MPS II, heparan sulfate disaccharide biomarkers (I2a4, I2a6, I2S0 and/or I2S6), read-out: IC50 Range
In the case of CNC(=O)c1ccc(Nc2cc(-c3ccc4c(c3)ncn4CCCN3CCOCC3)nc(N3CCOCC3)n2)cc1 [N-methyl[4-({2-morpholin-4-yl-6-[1-(3-morpholin-4-ylpropyl)benzimidazol-5-yl]pyrimidin-4-yl}amino)phenyl]carboxamide], the IC50 is reported as 1000 to 5000 nM. Clc1ccc(Nc2cc(-c3ccc4cnn(CC5CC5)c4c3)nc(N3CCOCC3)n2)cc1 [(4-chlorophenyl){6-[1-(cyclopropylmethyl)(1H-indazol-6-yl)]-2-morpholin-4-ylpyrimidin-4-yl}amine] was tested, and the IC50 was 1000 to 5000 nM. Clc1ccc(Nc2cc(-c3ccc4nn(CC5CC5)cc4c3)nc(N3CCOCC3)n2)cc1 [(4-chlorophenyl){6-[2-(cyclopropylmethyl)(2H-indazol-5-yl)]-2-morpholin-4-ylpyrimidin-4-yl}amine] was tested, and the IC50 was 1000 to 5000 nM. In the case of Cn1nc(CCN2CCOCC2)c2ccc(-c3nc(N4CCOCC4)nc(Nc4ccc(Cl)cc4)c3F)cc21 [(4-chlorophenyl){5-fluoro-6-[1-methyl-3-(2-morpholin-4-ylethyl)(1H-indazol-6-yl)]-2-morpholin-4-ylpyrimidin-4-yl}amine], the IC50 is reported as 1000 to 5000 nM. NC(=O)c1ccc(Nc2cc(-c3ccc4ncn(CCN5CCOCC5)c4c3)nc(N3CCOCC3)n2)cc1 [4-({2-morpholin-4-yl-6-[1-(2-morpholin-4-ylethyl)benzimidazol-6-yl]pyrimidin-4-yl}amino)benzamide] was tested, and the IC50 was 1000 to 5000 nM. Cc1nn(C)c2cc(-c3cc(Nc4ccc(-c5ccn[nH]5)cc4)nc(N4CCOCC4)n3)ccc12 [[6-(1,3-dimethyl(1H-indazol-6-yl))-2-morpholin-4-ylpyrimidin-4-yl](4-pyrazol-5-ylphenyl)amine] was tested, and the IC50 was under 500 nM. For Cc1nn(C)c2cc(-c3cc(Nc4ccc(-c5ncon5)cc4)nc(N4CCOCC4)n3)ccc12 [[6-(1,3-dimethyl(1H-indazol-6-yl))-2-morpholin-4-ylpyrimidin-4-yl](4-(1,2,4-oxadiazol-3-yl)phenyl)amine], the IC50 was 500 to 1000 nM. CN(C)CCNc1nn(C)c2cc(-c3cc(Nc4ccc(Cl)cc4)nc(N4CCOCC4)n3)ccc12 [{2-[(6-{6-[(4-chlorophenyl)amino]-2-morpholin-4-ylpyrimidin-4-yl}-1-methyl(1H-indazol-3-yl))amino]ethyl}dimethylamine] was tested, and the IC50 was 500 to 1000 nM. CNC(=O)c1ccc(Nc2cc(-c3ccc4nc[nH]c4c3)nc(N3CCOCC3)n2)cn1 [{5-[(6-benzimidazol-6-yl-2-morpholin-4-ylpyrimidin-4-yl)amino](2-pyridyl)}-N-methylcarboxamide] was tested, and the IC50 was 1000 to 5000 nM. Molecule Cn1c(CCN2CCCC2)nc2ccc(-c3cc(Nc4ccc(Cl)cc4)nc(N4CCOCC4)n3)cc21 [(4-chlorophenyl){6-[1-methyl-2-(2-pyrrolidinylethyl)benzimidazol-6-yl]-2-morpholin-4-ylpyrimidin-4-yl}amine] has an IC50 of under 500 nM. Cn1ncc2ccc(-c3cc(Nc4ccc(-c5nc[nH]n5)cc4)nc(N4CCOCC4)n3)cc21 [[6-(1-methyl(1H-indazol-6-yl))-2-morpholin-4-ylpyrimidin-4-yl](4-(1,2,4-triazolyl)phenyl)amine] gave an IC50 of 500 to 1000 nM. CNC(=O)c1ccc(Nc2cc(-c3ccc4nc(C)n(C)c4c3)nc(N3CCOCC3)n2)cc1 [(4-{[6-(1,2-dimethylbenzimidazol-6-yl)-2-morpholin-4-ylpyrimidin-4-yl]amino}phenyl)-N-methylcarboxamide] gave an IC50 of under 500 nM. In the case of Cn1c(N2CCCC2)nc2ccc(-c3cc(Nc4ccc(Cl)cc4)nc(N4CCOCC4)n3)cc21 [(4-chlorophenyl)[6-(1-methyl-2-pyrrolidinylbenzimidazol-6-yl)-2-morpholin-4-ylpyrimidin-4-yl]amine], the IC50 is reported as 1000 to 5000 nM. Cc1nn(C)c2cc(-c3cc(Nc4ccc5cc[nH]c5c4)nc(N4CCOCC4)n3)ccc12 [[6-(1,3-dimethyl(1H-indazol-6-yl))-2-morpholin-4-ylpyrimidin-4-yl]indol-6-ylamine] showed an IC50 of 500 to 1000 nM. COC(=O)c1ccc(Nc2cc(-c3ccc4cnn(CCCN5CCOCC5)c4c3)nc(N3CCOCC3)n2)cc1 [methyl 4-({2-morpholin-4-yl-6-[1-(3-morpholin-4-ylpropyl)(1H-indazol-6-yl)]pyrimidin-4-yl}amino)benzoate] gave an IC50 of 500 to 1000 nM. In the case of CNC(=O)c1ccc(Nc2cc(-c3ccc4cnn(CCCN5CCOCC5)c4c3)nc(N3CCOCC3)n2)cc1 [N-methyl[4-({2-morpholin-4-yl-6-[1-(3-morpholin-4-ylpropyl)(1H-indazol-6-yl)]pyrimidin-4-yl}amino)phenyl]carboxamide], the IC50 is reported as under 500 nM. CNC(=O)c1ccc(Nc2cc(-c3ccc4c(c3)ncn4C)nc(N3CCOCC3)n2)cc1 [N-methyl(4-{[6-(1-methylbenzimidazol-5-yl)-2-morpholin-4-ylpyrimidin-4-yl]amino}phenyl)carboxamide] was tested, and the IC50 was under 500 nM. Clc1ccc(Nc2cc(-c3cccc4[nH]ncc34)nc(N3CCOCC3)n2)cc1 [N-(4-chlorophenyl)-6-(1H-indazol-4-yl)-2-morpholinopyrimidin-4-amine] gave an IC50 of 500 to 1000 nM. Clc1ccc(Nc2cc(-c3ccc4nc[nH]c4c3)nc(N3CCOCC3)n2)cc1 [(6-benzimidazol-6-yl-2-morpholin-4-ylpyrimidin-4-yl)(4-chlorophenyl)amine] was tested, and the IC50 was 500 to 1000 nM. Cc1ccc(Nc2cc(-c3ccc4c(CCN5CCOCC5)nn(C)c4c3)nc(N3CCOCC3)n2)cc1 [{6-[1-methyl-3-(2-morpholin-4-ylethyl)(1H-indazol-6-yl)]-2-morpholin-4-ylpyrimidin-4-yl}(4-methylphenyl)amine] was tested, and the IC50 was 500 to 1000 nM. In the case of CCc1nn(C)c2cc(-c3cc(Nc4ccc(Cl)cc4)nc(N4CCOCC4)n3)cnc12 [(4-chlorophenyl)[6-(3-ethyl-1-methylpyrazolo[4,5-b]pyridin-6-yl)-2-morpholin-4-ylpyrimidin-4-yl]amine], the IC50 is reported as 1000 to 5000 nM. With Cc1nn(C)c2cc(-c3cc(Nc4ccc(-c5[nH]ncc5F)cc4)nc(N4CCOCC4)n3)ccc12 [[6-(1,3-dimethyl(1H-indazol-6-yl))-2-morpholin-4-ylpyrimidin-4-yl][4-(4-fluoropyrazol-5-yl)phenyl]amine] the IC50 was 500 to 1000 nM. CNC(=O)c1ccc(Nc2cc(-c3ccc4cn[nH]c4c3)nc(N3CCOCC3)n2)cn1 [{5-[(6-(1H-indazol-6-yl)-2-morpholin-4-ylpyrimidin-4-yl)amino](2-pyridyl)}-N-methylcarboxamide] gave an IC50 of 500 to 1000 nM. Cc1nn(C)c2cc(-c3cc(Nc4ccc(-c5cccn5C)cc4)nc(N4CCOCC4)n3)ccc12 [[6-(1,3-dimethyl(1H-indazol-6-yl))-2-morpholin-4-ylpyrimidin-4-yl][4-(1-methylpyrrol-2-yl)phenyl]amine] gave an IC50 of 500 to 1000 nM. In the case of Cc1nn(C)c2cc(-c3cc(Nc4ccc(-c5cocn5)cc4)nc(N4CCOCC4)n3)ccc12 [[6-(1,3-dimethyl(1H-indazol-6-yl))-2-morpholin-4-ylpyrimidin-4-yl](4-(1,3-oxazol-4-yl)phenyl)amine], the IC50 is reported as under 500 nM. For Cc1nnc(-c2ccc(Nc3cc(-c4ccc5c(CCN6CCOCC6)nn(C)c5c4)nc(N4CCOCC4)n3)cc2)[nH]1 [[4-(5-methyl(4H-1,2,4-triazol-3-yl))phenyl]{6-[1-methyl-3-(2-morpholin-4-ylethyl)(1H-indazol-6-yl)]-2-morpholin-4-ylpyrimidin-4-yl}amine], the IC50 was under 500 nM. In the case of CN(C)CCc1nn(C)c2cc(-c3cc(Nc4ccc(Cl)cc4)nc(N4CCOCC4)n3)ccc12 [[2-(6-{6-[(4-chlorophenyl)amino]-2-morpholin-4-ylpyrimidin-4-yl}-1-methyl(1H-indazol-3-yl))ethyl]dimethylamine], the IC50 is reported as 500 to 1000 nM. CN(C)CCCn1ncc2ccc(-c3cc(Nc4ccc(Cl)cc4)nc(N4CCOCC4)n3)cc21 [[3-(6-{6-[(4-chlorophenyl)amino]-2-morpholin-4-ylpyrimidin-4-yl}(1H-indazolyl))propyl]dimethylamine] gave an IC50 of 1000 to 5000 nM. Molecule Cn1ncc2ccc(-c3cc(Nc4ccc(C5=NCCO5)cc4)nc(N4CCOCC4)n3)cc21 [[6-(1-methyl(1H-indazol-6-yl))-2-morpholin-4-ylpyrimidin-4-yl](4-(1,3-oxazolin-2-yl)phenyl)amine] has an IC50 of 1000 to 5000 nM. Cc1nn(C)c2cc(-c3cc(Nc4ccc(-c5ccn(C)n5)cc4)nc(N4CCOCC4)n3)ccc12 [[6-(1,3-dimethyl(1H-indazol-6-yl))-2-morpholin-4-ylpyrimidin-4-yl][4-(1-methylpyrazol-3-yl)phenyl]amine] gave an IC50 of 1000 to 5000 nM. For Cn1ncc2ccc(-c3cc(Nc4ccc(-c5ncco5)cc4)nc(N4CCOCC4)n3)cc21 [[6-(1-methyl(1H-indazol-6-yl))-2-morpholin-4-ylpyrimidin-4-yl](4-(1,3-oxazol-2-yl)phenyl)amine], the IC50 was 500 to 1000 nM. Cc1nc2ccc(-c3cc(Nc4ccc5ccn(C)c5c4)nc(N4CCOCC4)n3)cc2n1CC1CC1 [{6-[1-(cyclopropylmethyl)-2-methylbenzimidazol-6-yl]-2-morpholin-4-ylpyrimidin-4-yl}(1-methylindol-6-yl)amine] showed an IC50 of under 500 nM. With CNC(=O)c1ccc(Nc2cc(-c3ccc4cnn(C5CC5)c4c3)nc(N3CCOCC3)n2)cc1 [(4-{[6-(1-cyclopropyl(1H-indazol-6-yl))-2-morpholin-4-ylpyrimidin-4-yl]amino}phenyl)-N-methylcarboxamide] the IC50 was under 500 nM.
